Experimental data from patent US10815197B2, “N-sulfonyl benzamides as voltage-gated sodium channel inhibitors” (SHANGHAI HAIYAN PHARMACEUTICAL TECHNOLOGY CO., LTD., priority 2016, dated 2020).

Legend:
[1] = Metabolism stability assay, human liver microsomes; assay type: in vitro ADME; conditions: for half-life at 1 µM: pH 7.4
Procedure: Assay 4: Metabolism Stability Assay 1. […] Buffer A: 1 L solution of 100 mM potassium dihydrogen phosphate containing 1 mM EDTA (Sigma, V900157-100G) was prepared. Buffer B: 1 L solution of 100 mM dipotassium hydrogen phosphate containing 1 mM EDTA was prepared. Buffer C: 700 mL of buffer B was taken out and titrated with buffer A to pH 7.4. 2. […] 2.2 20 μl (20 mg/mL) of liver microsomes (Corning Lot. NO. 4133007) stock solution was added to 513.4 μl of buffer C on wet ice. 0.75 mg/mL liver microsomal solution was obtained. 2.3 1.5 μl of each of the above-mentioned compound to be tested and ketanserin solution was added to 498.5 μl of liver microsomal solution (0.7 5 mg/mL) respectively on wet ice. 1.5 μM mixed solution of compound to be tested and 1.5 μM mixed solution of ketanserin were obtained. 2.4 At the time points 0, 5, 15, 30, 45, and 60 min, 30 μl of the mixed solution of compound to be tested and 30 μl of the mixed solution of ketanserin were dispensed into the reaction plate on wet ice, respectively. 2.5 5 mg reduced coenzyme II (Roche, 10621706001) was weighed and dissolved in 1 mL of buffer C. 6 mM reduced coenzyme II solution was obtained. The reduced coenzyme II solution was dispensed into the reaction plate. 2.6 Imipramine was dissolved to give a 10 mM solution. 10 μl of imipramine solution was added to 100 mL of blank acetonitrile to generate the internal reference. 2.7 At 0 min, 135 μL of iced acetonitrile (Merck (Lot. 1778229518)) containing the internal reference was added to each well and then 15 μL of buffer C was added. 2.8 The reaction plate was placed into a 37° C. water bath incubator for 5 min. In the reaction plate, 15 μL of reduced coenzyme II solution was added to each well to initiate the reaction, and the timing was started. At the time points of 5, 15, 30, 45, and 60 min, 135 μL of iced acetonitrile containing the internal reference was added to each well to terminate the reaction. 2.9 The reaction plate was sealed with an aluminum film, placed on a vibration mixer and shaken at 500 rpm for 5 min. The plate was then centrifuged in a centrifuge at 3750 rp for 15 min. 2.10 The sample was diluted with pure water in accordance with the ratio of 1:1 and detected by LC/MS. Half-life: 0.693/K (the slope by plotting based on the incubation time and logarithm of the concentration value) Clearance ratio: (0.693/half-life)*(1/protein concentration (0.5 mg/mL))*(proportional factor) Wherein, the K value and the proportional factor were calculated by those skilled in the art according to the methods described in the prior art and contained in the instructions of the liver microsome product.

hNav1.7 = molecular target: T1, hNav1.7 (Homo sapiens, UniProt Q15858); experiment: Manual patch clamp experiment hNav1.7 (CHO-hNav1.7 stable cell line); assay type: cell-based; conditions: for inhibition at 0.1 µM: compound at 100 nM, read-out: Inhibition of Nav1.7 100 nM(%); for inhibition at 1 µM: compound at 1000 nM, read-out: Inhibition of Nav1.7 1000 nM(%)
T1 construct: host or cells: CHO
Procedure, shortened: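 Whole-cell manual patch clamp on CHO-hNav1.7 or HEK-hNav1.5 cells, extracellular pH 7.3, CsF-based internal. Sodium current elicited by 20 ms steps to −10 mV from either V1/2 holding (with 50 ms −120 mV prepulse) or −120 mV holding, every 10 s; inhibition from current before versus after dosing, IC50 by Hill fit.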

T1 sequence (Q15858 whole entry): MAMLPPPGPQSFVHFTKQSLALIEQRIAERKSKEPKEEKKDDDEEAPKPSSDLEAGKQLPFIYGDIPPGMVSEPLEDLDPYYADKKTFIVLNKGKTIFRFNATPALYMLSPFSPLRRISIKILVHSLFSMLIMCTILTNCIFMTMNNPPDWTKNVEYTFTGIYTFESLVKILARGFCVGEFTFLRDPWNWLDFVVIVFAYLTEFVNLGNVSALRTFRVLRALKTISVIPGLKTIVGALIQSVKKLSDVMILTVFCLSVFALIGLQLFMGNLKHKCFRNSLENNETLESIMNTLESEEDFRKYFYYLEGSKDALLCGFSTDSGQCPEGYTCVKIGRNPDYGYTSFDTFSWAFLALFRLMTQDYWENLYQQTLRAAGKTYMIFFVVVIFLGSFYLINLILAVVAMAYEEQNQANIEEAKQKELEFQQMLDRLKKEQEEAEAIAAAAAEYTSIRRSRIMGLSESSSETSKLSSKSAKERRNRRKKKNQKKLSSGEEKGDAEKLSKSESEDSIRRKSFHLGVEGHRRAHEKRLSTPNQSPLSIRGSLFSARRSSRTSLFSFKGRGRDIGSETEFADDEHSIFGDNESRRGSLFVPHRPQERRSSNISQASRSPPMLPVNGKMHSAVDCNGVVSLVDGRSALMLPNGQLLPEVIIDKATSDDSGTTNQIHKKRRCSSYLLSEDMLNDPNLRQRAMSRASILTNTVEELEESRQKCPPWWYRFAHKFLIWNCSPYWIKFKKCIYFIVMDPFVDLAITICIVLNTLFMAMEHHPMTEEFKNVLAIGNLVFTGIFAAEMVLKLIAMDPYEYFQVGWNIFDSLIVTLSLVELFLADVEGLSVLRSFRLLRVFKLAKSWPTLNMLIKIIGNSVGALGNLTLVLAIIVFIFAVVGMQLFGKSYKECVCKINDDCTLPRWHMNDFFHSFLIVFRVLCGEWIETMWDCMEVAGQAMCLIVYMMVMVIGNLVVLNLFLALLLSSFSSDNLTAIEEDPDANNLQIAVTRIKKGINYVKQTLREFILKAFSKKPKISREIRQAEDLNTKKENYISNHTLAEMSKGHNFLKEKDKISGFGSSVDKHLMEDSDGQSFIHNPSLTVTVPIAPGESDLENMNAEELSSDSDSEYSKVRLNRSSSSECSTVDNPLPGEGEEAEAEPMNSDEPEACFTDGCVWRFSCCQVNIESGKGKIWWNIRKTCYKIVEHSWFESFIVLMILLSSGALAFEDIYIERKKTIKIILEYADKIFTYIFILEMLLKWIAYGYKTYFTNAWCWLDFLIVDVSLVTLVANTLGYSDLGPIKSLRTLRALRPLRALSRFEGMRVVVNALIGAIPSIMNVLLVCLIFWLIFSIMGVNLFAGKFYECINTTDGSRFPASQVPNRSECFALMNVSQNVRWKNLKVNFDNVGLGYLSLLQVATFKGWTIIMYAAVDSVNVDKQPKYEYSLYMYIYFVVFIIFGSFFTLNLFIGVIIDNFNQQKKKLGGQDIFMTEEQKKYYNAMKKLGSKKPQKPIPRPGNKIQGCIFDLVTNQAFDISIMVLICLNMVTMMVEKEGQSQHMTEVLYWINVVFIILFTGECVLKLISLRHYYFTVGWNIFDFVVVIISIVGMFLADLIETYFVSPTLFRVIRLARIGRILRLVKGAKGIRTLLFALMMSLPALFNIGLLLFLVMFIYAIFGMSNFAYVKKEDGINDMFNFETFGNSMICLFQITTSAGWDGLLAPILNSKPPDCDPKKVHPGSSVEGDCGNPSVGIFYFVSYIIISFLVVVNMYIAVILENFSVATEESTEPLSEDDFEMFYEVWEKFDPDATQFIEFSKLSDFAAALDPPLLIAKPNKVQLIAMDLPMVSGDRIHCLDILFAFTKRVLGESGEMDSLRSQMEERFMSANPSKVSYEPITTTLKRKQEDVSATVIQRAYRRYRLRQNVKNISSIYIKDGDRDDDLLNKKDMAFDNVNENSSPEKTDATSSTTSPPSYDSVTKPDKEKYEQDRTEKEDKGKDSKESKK

| Structure (SMILES) | Clearance [1] | half-life at 1 µM [1] | inhibition at 0.1 µM (hNav1.7) | inhibition at 1 µM (hNav1.7) | IC50 (hNav1.7; read-out: Nav1.7(IC50/nM)) | T1/2(min) [1] |
| --- | --- | --- | --- | --- | --- | --- |
| Cc1cc(N2CCN(Cc3cc(F)c(C(=O)NS(=O)(=O)C4CC4)cc3Cl)CC2)ccc1Cl [Compound Z-164] | 20.12 mL/min/kg | 1.44 h | 89.7% | 102% | 24.6 nM | – |
| C[C@@H]1CN(c2ccc(Cl)c(Cl)c2)CCN1Cc1cc(F)c(C(=O)NS(=O)(=O)C2CC2)cc1Cl [Compound Z-172, (R)-5-Chloro-N-(cyclopropylsulfonyl)-4-((4-(3,4-dichlorophenyl)-2-methylpiperazin-1-yl)methyl)-2-fluorobenzamide] | 2.20 mL/min/kg | 13.1 h | 89.1% | 97.2% | – | – |
| O=C(NS(=O)(=O)C1CC1)c1cc(Cl)c(CN2CCN(c3ccc(C4CC4)c(Cl)c3)CC2)cc1F [Compound Z-173] | 6.20 mL/min/kg | 4.67 h | 93.8% | 100% | – | – |
| Cc1ccc(N2CCN(Cc3cc(F)c(C(=O)NS(=O)(=O)C4CC4)cc3Cl)CC2)cc1Cl [Compound Z-177] | 0.00 mL/min/kg | – | 89.2% | 98% | – | ∞ |
| CCc1cc(N2CCN(Cc3cc(F)c(C(=O)NS(=O)(=O)C4CC4)cc3Cl)CC2)ccc1Cl [Compound Z-178] | 23.88 mL/min/kg | 1.21 h | 89.1% | 98.7% | – | – |
| CCc1cc(C(=O)NS(=O)(=O)C2CC2)c(F)cc1CN1CCN(c2ccc(OC(F)(F)F)cc2)CC1 [Compound Z-189, N-(cyclopropylsulfonyl)-5-ethyl-2-fluoro-4-((4-(4-(trifluoromethoxy)phenyl)piperazin-1-yl)methyl)benzamide] | 2.74 mL/min/kg | – | 83.8% | 99.2% | – | ∞ |
